Data published in patent publication US8252835B2, “Compounds and methods for treating estrogen receptor-related diseases” (Shenogen Pharma Group Ltd., priority 2006, dated 2012).

Experiments:
ER-α36 = molecular target: T1, ER-α36 (Homo sapiens, UniProt P03372); test: Western blot of ER-α36 expression in MCF7 cells; details: zero to 25 μM, 12 hours, FIG. 9
T1 sequence (P03372 1-310 isoform P03372-4): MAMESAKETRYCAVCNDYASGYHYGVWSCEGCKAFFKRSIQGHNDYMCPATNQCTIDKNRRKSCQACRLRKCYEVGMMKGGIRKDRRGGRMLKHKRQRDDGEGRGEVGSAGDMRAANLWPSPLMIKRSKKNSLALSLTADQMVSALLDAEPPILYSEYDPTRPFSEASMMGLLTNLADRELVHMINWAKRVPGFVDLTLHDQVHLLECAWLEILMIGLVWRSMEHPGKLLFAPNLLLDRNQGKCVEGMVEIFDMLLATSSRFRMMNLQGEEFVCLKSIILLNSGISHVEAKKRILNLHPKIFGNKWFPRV

[1] = Asthma attack induced by ovalbumin in guinea pigs; format: in vivo; details: for blood concentration of histamine / concentration of IgE in the blood: ELISA; for blood concentration of histamine: FIG. 19; for concentration of IgE in the blood: FIG. 20; for percentage of oxyphil cells in the blood: control about 9.9%, normal about 5.3%
Experimental: Guinea pigs of 250-300 g were provided by Beijing Haidian Xingwang Animal Farm. The guinea pigs were injected with 1 ml 10% ovalbumin (Sigma Cat. No. A5253) into abdomen once. On the 15th-17th day after the injection, the guinea pigs were given 1% aerosolized ovalbumin for about 20 seconds through nasal spray to induce asthma attack. The latent period before asthma attack calculated from after ovalbumin administration to the time when the guinea pigs collapsed with convulsion was measured.
On the 17th day after injection, the qualified guinea pigs were divided into 3 groups, the high dosage IC-163 group (4 mg/kg/day), the low dosage IC-163 group (1 mg/kg/day) and the control group. Each group consisted of 10 guinea pigs. A normal group consisting of 8 normal guinea pigs which had not been injected with any 10% ovalbumin was also tested. IC-163 was administered to the guinea pigs at 4 mg per kilogram of body weight per day (the high dosage group) or 1 mg per kilogram of body weight per day (the low dosage group) through muscle injection once a day for 6 days while the guinea pigs of the normal group and the control group were injected with saline water. On the 4th and 6th day of administering the drug, the guinea pigs were induced for asthma attack in the same way as above. The latent period before asthma attack was measured. If the latent period lasted longer than 5 minutes, the latent period was recorded as 5 minutes. On the 6th day, blood was drawn from the guinea pigs of the four groups to examine the percentage of oxyphil cells, the concentrations of histamine and IgE in the blood. The percentage of oxyphil cells was measured by counting the number of oxyphil cells in every 200 leukocytes under microscope. The concentrations of histamine and IgE were measured by double-antibody sandwich ELISA (Enzyme Linked Immunosorbent Assay).

PC3 cells = test: PC3 prostate cancer surviving cell count; format: cell-based; details: 10 μM, FIG. 16
[2] = test system: Tamoxifen resistant MCF7 cells (MCF7/TAM); test: Surviving cell count, Tamoxifen resistant MCF7 cells; details: 10 μM, FIG. 16
MCF7 cells [3] = test: MCF7 surviving cell count (hemocytometer); details: for numbers of surviving MCF7 cells: 5 μM and up, two weeks, FIG. 5b
H226 Lung Cancer Cells = test: H226 lung cancer surviving cell count; format: cell-based; details: 10 μM, FIG. 16
ER-α66 = molecular target: T2, ER-α66 (Homo sapiens, UniProt P03372); test: Western blot of ER-α66 expression in MCF7 cells; details: zero to 25 μM, 12 hours, FIG. 9
T2 sequence (P03372 1-595): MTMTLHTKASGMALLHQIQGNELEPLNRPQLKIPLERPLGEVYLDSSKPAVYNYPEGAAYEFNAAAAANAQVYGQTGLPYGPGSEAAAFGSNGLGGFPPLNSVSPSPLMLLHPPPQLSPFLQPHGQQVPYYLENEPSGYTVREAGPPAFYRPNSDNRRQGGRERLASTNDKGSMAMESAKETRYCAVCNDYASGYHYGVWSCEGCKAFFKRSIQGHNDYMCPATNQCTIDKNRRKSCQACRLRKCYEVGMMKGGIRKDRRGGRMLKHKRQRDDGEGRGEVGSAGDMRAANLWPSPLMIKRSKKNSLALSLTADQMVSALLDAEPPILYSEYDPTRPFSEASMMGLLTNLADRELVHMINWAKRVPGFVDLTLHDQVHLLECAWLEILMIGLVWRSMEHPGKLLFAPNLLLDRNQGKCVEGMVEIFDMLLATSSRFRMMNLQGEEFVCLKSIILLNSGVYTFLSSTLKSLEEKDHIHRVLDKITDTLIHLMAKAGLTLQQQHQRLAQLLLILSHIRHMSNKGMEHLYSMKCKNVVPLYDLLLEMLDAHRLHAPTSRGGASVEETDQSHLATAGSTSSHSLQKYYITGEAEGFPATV

ER-α46 = molecular target: T3, ER-α46 (Homo sapiens, UniProt P03372); test: Western blot of ER-α46 expression in MCF7 cells; details: zero to 25 μM, 12 hours, FIG. 9
T3 sequence (P03372 1-422 isoform P03372-3): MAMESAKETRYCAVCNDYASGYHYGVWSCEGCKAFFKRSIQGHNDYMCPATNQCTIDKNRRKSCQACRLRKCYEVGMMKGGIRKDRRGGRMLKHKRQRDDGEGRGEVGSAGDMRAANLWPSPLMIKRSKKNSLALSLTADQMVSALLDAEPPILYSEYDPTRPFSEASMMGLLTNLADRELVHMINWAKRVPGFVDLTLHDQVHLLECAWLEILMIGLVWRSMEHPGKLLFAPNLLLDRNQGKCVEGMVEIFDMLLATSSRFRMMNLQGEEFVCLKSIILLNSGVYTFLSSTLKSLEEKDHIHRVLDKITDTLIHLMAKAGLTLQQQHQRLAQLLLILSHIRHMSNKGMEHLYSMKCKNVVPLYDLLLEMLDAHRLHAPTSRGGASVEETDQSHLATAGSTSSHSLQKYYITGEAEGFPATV

MCF7 cells [4] = test: MCF7 colony formation; format: cell-based; details: 10 days, FIG. 5a
MDA-MB-231 cells = test: MDA-MB-231 colony formation, crystal violet staining; format: cell-based; details: 10 days, FIG. 4
cell proliferation = details: background, literature; cited from earlier work
[5] = test system: human endometrial cancer Hec1A cells; test: MTT assay of Hec1A cell growth; format: cell-based; details: 24 hours
Experimental: Human endometrial cancer Hec1A cells (ATCC No.: HTB-112™) were subseeded in a 96-well culture plate at a concentration of 5×10^3 cells/well and were cultured in DMEM containing high glucose medium (HyClone, SH30022.01B). […] The cells then were incubated with 0.5 mg/ml 3-(4,5-dimethylthiazol-2-yl)-2,5-diphenyltetrazolium bromide (MTT) for 4 hours at 37° C. wherein the MTT was reduced to insoluble purple formazan by the active mitochondrial reductase enzymes in the living cells. Then the excessive liquid MTT was removed from the reaction mixture. 150 μl of DMSO was added to dissolve the purple formazan into a colored solution. The optical density of the colored solution was measured at 490 nm using a microplate reader.

breast cancer cells = details: background, literature (Liu 2005; Wang 2004; Ye 2005); cited from earlier work
[6] = high dosage 4 mg/kg/day, 6th day
[7] = low dosage 1 mg/kg/day, 6th day
[8] = zero to 25 μM, as concentration rose

COc1ccc(-c2oc3c(CCC(C)(C)O)c(O)cc(O)c3c(=O)c2O)cc1 [IC 163, 3,5,7-trihydroxy-8-(3-hydroxy-3-methylbutyl)-2-(4-methoxyphenyl)-4H-chromen-4-one]
ER-α36 expression (ER-α36): greatly reduced | latent period before asthma attack extended in comparison with the control group ([1]; high dosage 4 mg/kg/day muscle injection, 4th day): 72.9% | latent period before asthma attack extended in comparison with the control group ([1]; high dosage 4 mg/kg/day muscle injection, 6th day): 63.5% | blood concentration of histamine [1, 6]: significantly reduce | concentration of IgE in the blood [1, 6]: significantly reduce | percentage of oxyphil cells in the blood [1, 6]: about 8.6% | latent period before asthma attack extended in comparison with the control group ([1]; low dosage 1 mg/kg/day muscle injection, 4th day): 83.4% | latent period before asthma attack extended in comparison with the control group ([1]; low dosage 1 mg/kg/day muscle injection, 6th day): 72.7% | blood concentration of histamine [1, 7]: significantly reduce | concentration of IgE in the blood [1, 7]: significantly reduce | percentage of oxyphil cells in the blood [1, 7]: about 7.8% | numbers of cells (PC3 cells): reduced | numbers of cells [2]: reduced | numbers of surviving MCF7 cells (MCF7 cells [3]): significantly reduced | numbers of cells (MCF7 cells [3]; 10 μM, FIG. 16): reduced | numbers of cells (H226 Lung Cancer Cells): reduced | ER-α66 expression (ER-α66): greatly reduced | ER-α46 expression (ER-α46): greatly reduced

C[C@]12CC[C@@H]3c4ccc(O)cc4C[C@@H](CCCCCCCCC[S+]([O-])CCCC(F)(F)C(F)(F)F)[C@H]3[C@@H]1CC[C@@H]2O (some centres unmarked) [ICI 182,780]
number of colonies of MCF7 cells (MCF7 cells [4]; 25 μM): only a limited decrease | numbers of colonies of MDA-MB-231 cells (MDA-MB-231 cells; 5 μM): decreased | numbers of colonies of MDA-MB-231 cells (MDA-MB-231 cells; 50 μM): remained at a high level

COc1ccc(-c2oc3c(CC=C(C)C)c(O[C@@H]4O[C@H](CO)[C@@H](O)[C@H](O)[C@H]4O)cc(O)c3c(=O)c2O[C@@H]2O[C@@H](C)[C@H](O)[C@@H](O)[C@H]2O)cc1 [Icariin]
effect on cell proliferation in vitro (cell proliferation): no effect

O=c1cc(-c2ccc(O)c(O)c2)oc2cc(O)cc(O)c12 [Luteolin]
number of colonies of MCF7 cells (MCF7 cells [4]; [8]): significantly reduced | numbers of colonies of MDA-MB-231 cells (MDA-MB-231 cells; 5 μM): decreased | numbers of colonies of MDA-MB-231 cells (MDA-MB-231 cells; 40 μM): dropped to near zero

CC/C(=C(\c1ccccc1)c1ccc(OCCN(C)C)cc1)c1ccccc1 [Tamoxifen]
number of colonies of MCF7 cells (MCF7 cells [4]; [8]): significantly reduced | numbers of colonies of MDA-MB-231 cells (MDA-MB-231 cells; 5 μM): decreased | numbers of colonies of MDA-MB-231 cells (MDA-MB-231 cells; 10 μM): reduced to near zero | effect on the growth of Hec1A cells ([5]; concentrations below 3 μM): stimulating the growth | optical density at 490 nm (MTT) ([5]; concentrations increased from 0.001 μM to 3 μM, FIG. 21): rose

CC1(C)CCc2c(cc(O)c3c(=O)c(O)c(-c4ccc(O)cc4)oc23)O1 [Y4, 3,5-dihydroxy-2-(4-hydroxyphenyl)-8,8-dimethyl-9,10-dihydro-4H,8H-pyrano[2,3-f]chromen-4-one]
ER-α36 expression (ER-α36): greatly reduced | numbers of surviving MCF7 cells (MCF7 cells [3]): significantly reduced | ER-α66 expression (ER-α66): greatly reduced | ER-α46 expression (ER-α46): greatly reduced

CC(C)=CCc1c(O)cc(O)c2c(=O)c(O)c(-c3ccc(O)cc3)oc12 [desmethylicaritin, reference compound]
proliferation of breast cancer cells (breast cancer cells): significantly increase
